Laboratory results published in patent publication US8604016B2, “Heterocyclic inhibitors of glutaminase” (Calithera Biosciences Inc., priority 2011, dated 2013).
In brackets after ≈: the same amount, converted by molar mass. Read-outs that look alike come from different tables or passages of the source.

Key:
[1] = Solubility (18 hr vortex mixing at room temperature, filtration, HPLC); assay type: physicochemical; details: thermodynamic from solid
Protocol: Ca. 1 mg portions of test article were combined with 120 μL solvent in wells of a 96×2 mL polypropylene plate. […] The contents of all wells were then filtered through a 0.45 μm GHP filter plate to yield clear filtrates. 5 μL of each filtrate was diluted into 100 μL DMF and vortex mixed to yield HPLC samples. Duplicate quantitation standards for each test article were prepared by diluting weighed portions of solid test article in measured volumes of DMF. 2 μL of each HPLC sample and quantitation standard were analyzed by HPLC using the method outlined in Table 5. Dissolved test article concentrations were calculated by peak area ratio against the appropriate quantitation standards.

[2] = Caco-2 Permeability Assay (bidirectional); assay type: in vitro ADME; details: human; for recovery at 120 min, 1 μM / Papp A→B at 120 min, 1 μM / Papp B→A at 120 min, 1 μM: pH 7.4; for efflux ratio at 120 min, 1 µM / Papp A→B at 120 min, 1 μM / Papp B→A at 120 min, 1 μM / permeability class (Low/High absorption potential) at 120 min, 1 µM: Caco-2; for efflux ratio at 120 min, 1 µM: (Papp B→A)/(Papp A→B); for Papp A→B at 120 min, 1 μM: Direction A→B; for Papp A→B at 120 min, 1 μM / Papp B→A at 120 min, 1 μM: unit not given (thresholds in 10^−6 cm/s); for Papp B→A at 120 min, 1 μM: Direction B→A; for permeability class (Low/High absorption potential) at 120 min, 1 µM: read-out: Permeability Classification
Excerpt: (§1) Caco-2 cells are commonly used in a confluent monolayer on a cell culture insert filter. When cultured in this format and under specific conditions, the cells become differentiated and polarized such that their phenotype, morphologically and functionally resembles the enterocytes lining the small intestine. The cell monolayer provides a physical and biochemical barrier to the passage of small molecules, and is widely used across the pharmaceutical industry as an in vitro model of the human small intestinal mucosa to predict the absorption of orally administered drugs (Hidalgo et al., Gastroenterology, 1989; Artursson, J. Pharm. Sci., 1990). The correlation between the in vitro apparent permeability (P ? app) across Caco-2 monolayers and the in vivo absorption is well established (Artursson et al., Biochem. Biophys. Res. Comm., 1991).
(§2) The present assay was used to determine the bidirectional permeability of the compounds of the invention through Caco-2 cell monolayers. Caco-2 cells were grown in confluent monolayers where the media of both the apical (A) and basolateral (B) sides were at pH 7.4. Compounds were dosed at 1 μM in the presence of 200 μM Lucifer Yellow, on the apical side (A→B) or the basolateral side (B→A) for assessment, in duplicate.
(§3) The absorption potential of compounds were classified as either Low (P-app <1×10^−6 cm/s) or High (P-app >1×10^−6 cm/s).

Caco-2 cell monolayers = test: Caco-2 Permeability Assay (bidirectional); assay type: in vitro ADME
Excerpt: as §1, §2, §3

P493-6 (myc "on") cells = test: Cell Proliferation Assay (72 hrs, Cell Titer Glo or Viacount FACS); assay type: cell-based; details: P493-6 cells, 72 h, read-out: Cell prolif P493 72h
Protocol: P493-6 (myc “on”) cells were maintained in growth media (RPMI-1640, 10% FBS, 2 mM glutamine, 100 units/ml Penicillin and 100 μg/ml streptomycin) at 37° C. with 5% CO2. For compound assay, P493-6 cells were plated in 96-well V-bottom plates on the day of compound addition in 50 μl of growth media at a cell density of 200,000 cells/ml (10,000 cells/well). Compounds were serially diluted in 100% DMSO at 200-times the final concentration. Compounds were diluted 100-fold into growth media and then 50 μl of this mixture was added to cell plates making the final concentration of DMSO 0.5%. Cells were incubated with compound for 72 hrs at 37° C. with 5% CO2 and analyzed for antiproliferative effects either by Cell Titer Glo (Promega) or FACS analysis using the Viacount (Millipore) kit on the Guava instrument.

[3] = 50 mM citrate buffer pH 2.3, 20 °C, aqueous buffer, 50 mM Cit pH 2.3, room temperature
[4] = 50 mM citrate buffer pH 3.3, 20 °C, aqueous buffer, 50 mM Cit pH 3.3, room temperature
[5] = 50 mM citrate buffer pH 4.4, 20 °C, aqueous buffer, 50 mM Cit pH 4.4, room temperature
[6] = 50 mM citrate buffer pH 5.4, 20 °C, aqueous buffer, 50 mM Cit pH 5.4, room temperature
[7] = 20 °C, aqueous buffer, PBS, room temperature
[8] = 20 °C, aqueous with cosolvent or surfactant or cyclodextrin, 10% CrEL/50 mM cit, room temperature
[9] = 20 °C, aqueous with cosolvent or surfactant or cyclodextrin, 10% PS80/50 mM cit, room temperature
[10] = 20 °C, aqueous with cosolvent or surfactant or cyclodextrin, 20% HPBCD/50 mM cit, room temperature
[11] = 20 °C, aqueous with cosolvent or surfactant or cyclodextrin, 20% SBECD/50 mM cit, room temperature
[12] = 20 °C, oil or lipid, Capryol 90, room temperature
[13] = 20 °C, oil or lipid, Capryol PGMC, room temperature
[14] = 20 °C, oil or lipid, Labrasol, room temperature
[15] = 20 °C, oil or lipid, canola oil, room temperature
[16] = 20 °C, organic solvent or mixture, EtOH, room temperature
[17] = 20 °C, organic solvent or mixture, PEG400, room temperature
[18] = 20 °C, organic solvent or mixture, PG, room temperature
[19] = 20 °C, pH 1, simulated gastric fluid, 0.1M HCl, room temperature
[20] = 20 °C, pH 13, aqueous buffer, 0.1M NaOH, room temperature
[21] = 20 °C, saline or isotonic, 0.9% NaCl, room temperature
[22] = water, room temperature (ca. 20 C)

O=C(Cc1cccc(OC(F)(F)F)c1)Nc1ccc(CCCCc2nnc(NC(=O)C(O)c3cccc(Cl)c3)s2)nn1 (centres unmarked) [Compound 447]
solubility at 18 h [1, 3]: < 4 µg/mL | solubility at 18 h [1, 4]: < 4 µg/mL | solubility at 18 h [1, 5]: < 4 µg/mL | solubility at 18 h [1, 6]: < 4 µg/mL | solubility at 18 h [1, 7]: < 4 µg/mL | solubility at 18 h [1, 8]: 732 µg/mL (≈ 1180 µM) | solubility at 18 h [1, 9]: 851 µg/mL (≈ 1370 µM) | solubility at 18 h [1, 10]: 2180 µg/mL (≈ 3510 µM) | solubility at 18 h [1, 11]: 2720 µg/mL (≈ 4380 µM) | solubility at 18 h [1, 12]: 11100 µg/mL (≈ 17900 µM) | solubility at 18 h [1, 13]: 7920 µg/mL (≈ 12700 µM) | solubility at 18 h [1, 14]: 77200 µg/mL (≈ 124000 µM) | solubility at 18 h [1, 15]: 71 µg/mL (≈ 114 µM) | solubility at 18 h [1, 16]: 3920 µg/mL (≈ 6310 µM) | solubility at 18 h [1, 17]: 57300 µg/mL (≈ 92300 µM) | solubility at 18 h [1, 18]: 8260 µg/mL (≈ 13300 µM) | solubility at 18 h [1, 19]: < 4 µg/mL | solubility at 18 h [1, 20]: 192 µg/mL (≈ 309 µM) | solubility at 18 h [1, 21]: 5 µg/mL (≈ 8.05 µM) | solubility at 18 h [1, 22]: < 4 µg/mL | recovery at 120 min, 1 μM ([2]; Caco-2, pH 7.4, Direction A→B): 71% | recovery at 120 min, 1 μM ([2]; Caco-2, pH 7.4, Direction B→A): 56% | efflux ratio at 120 min, 1 µM [2]: 3.5 | Papp A→B at 120 min, 1 μM [2]: 7.76 ×10⁻⁶ cm/s | Papp B→A at 120 min, 1 μM [2]: 27.2 ×10⁻⁶ cm/s | permeability class (Low/High absorption potential) at 120 min, 1 µM [2]: > 1 ×10⁻⁶ cm/s | Significant Efflux (Caco-2 cell monolayers): Yes (efflux ratios being significant when greater than or equal to 3 when the Papp (B→A) was greater than or equal to 1×10^−6 cm/s)

O=C(Cc1cccc(OC(F)(F)F)c1)Nc1ccc(CCCCc2nnc(NC(=O)Cc3ccccc3)s2)nn1 [Compound 585]
solubility at 18 h [1, 3]: < 2 µg/mL | solubility at 18 h [1, 4]: < 2 µg/mL | solubility at 18 h [1, 5]: < 2 µg/mL | solubility at 18 h [1, 6]: < 2 µg/mL | solubility at 18 h [1, 7]: < 2 µg/mL | solubility at 18 h [1, 8]: 228 µg/mL (≈ 400 µM) | solubility at 18 h [1, 9]: 261 µg/mL (≈ 457 µM) | solubility at 18 h [1, 10]: 327 µg/mL (≈ 573 µM) | solubility at 18 h [1, 11]: 125 µg/mL (≈ 219 µM) | solubility at 18 h [1, 12]: 1740 µg/mL (≈ 3060 µM) | solubility at 18 h [1, 13]: 1780 µg/mL (≈ 3120 µM) | solubility at 18 h [1, 14]: 5000 µg/mL (≈ 8770 µM) | solubility at 18 h [1, 15]: 72 µg/mL (≈ 126 µM) | solubility at 18 h [1, 16]: 1990 µg/mL (≈ 3490 µM) | solubility at 18 h [1, 17]: 3940 µg/mL (≈ 6910 µM) | solubility at 18 h [1, 18]: 1420 µg/mL (≈ 2490 µM) | solubility at 18 h [1, 19]: < 2 µg/mL | solubility at 18 h [1, 20]: 192 µg/mL (≈ 336 µM) | solubility at 18 h [1, 21]: < 2 µg/mL | solubility at 18 h [1, 22]: < 2 µg/mL | recovery at 120 min, 1 μM ([2]; Caco-2, pH 7.4, Direction A→B): 42% | recovery at 120 min, 1 μM ([2]; Caco-2, pH 7.4, Direction B→A): 53% | efflux ratio at 120 min, 1 µM [2]: 3.1 | Papp A→B at 120 min, 1 μM [2]: 7.52 ×10⁻⁶ cm/s | Papp B→A at 120 min, 1 μM [2]: 23.4 ×10⁻⁶ cm/s | permeability class (Low/High absorption potential) at 120 min, 1 µM [2]: > 1 ×10⁻⁶ cm/s | Significant Efflux (Caco-2 cell monolayers): Yes (efflux ratios being significant when greater than or equal to 3 when the Papp (B→A) was greater than or equal to 1×10^−6 cm/s)

Nc1nnc(CCCCc2ccc(NC(=O)Cc3cccc(OC(F)(F)F)c3)nn2)s1 [Compound 657, N-(6-(4-(5-amino-1,3,4-thiadiazol-2-yl)butyl)pyridazin-3-yl)-2-(3-(trifluoromethoxy)phenyl)acetamide]
IC50 (P493-6 (myc "on") cells; P493-6, 72 h): 1500 nM

O=C(Cc1cccc(OC(F)(F)F)c1)Nc1ccc(CCCCc2nnc(NC(=O)Cc3ccccn3)s2)nn1 [Compound 670]
recovery at 120 min, 1 μM ([2]; Caco-2, pH 7.4, Direction A→B): 70% | recovery at 120 min, 1 μM ([2]; Caco-2, pH 7.4, Direction B→A): 72% | Papp A→B at 120 min, 1 μM [2]: 9.64 ×10⁻⁶ cm/s | Papp B→A at 120 min, 1 μM [2]: 59.6 ×10⁻⁶ cm/s | permeability class (Low/High absorption potential) at 120 min, 1 µM [2]: > 1 ×10⁻⁶ cm/s | Significant Efflux (Caco-2 cell monolayers): Yes (efflux ratios being significant when greater than or equal to 3 when the Papp (B→A) was greater than or equal to 1×10^−6 cm/s) | IC50 (P493-6 (myc "on") cells): 30 nM

O=C(Cc1cccc(OC(F)(F)F)c1)Nc1ccc(CCCCc2nnc(NC(=O)[C@@H](O)c3ccccc3)s2)nn1 [Compound 703]
solubility at 18 h [1, 3]: < 4 µg/mL | solubility at 18 h [1, 4]: < 4 µg/mL | solubility at 18 h [1, 5]: < 4 µg/mL | solubility at 18 h [1, 6]: < 4 µg/mL | solubility at 18 h [1, 7]: < 4 µg/mL | solubility at 18 h [1, 8]: 309 µg/mL (≈ 527 µM) | solubility at 18 h [1, 9]: 378 µg/mL (≈ 644 µM) | solubility at 18 h [1, 10]: 651 µg/mL (≈ 1110 µM) | solubility at 18 h [1, 11]: 476 µg/mL (≈ 811 µM) | solubility at 18 h [1, 12]: 7410 µg/mL (≈ 12600 µM) | solubility at 18 h [1, 13]: 3680 µg/mL (≈ 6280 µM) | solubility at 18 h [1, 14]: 20700 µg/mL (≈ 35300 µM) | solubility at 18 h [1, 15]: 14 µg/mL (≈ 23.9 µM) | solubility at 18 h [1, 16]: 2640 µg/mL (≈ 4510 µM) | solubility at 18 h [1, 17]: 22400 µg/mL (≈ 38200 µM) | solubility at 18 h [1, 18]: 4700 µg/mL (≈ 8010 µM) | solubility at 18 h [1, 19]: < 4 µg/mL | solubility at 18 h [1, 20]: 656 µg/mL (≈ 1120 µM) | solubility at 18 h [1, 21]: < 4 µg/mL | solubility at 18 h [1, 22]: < 4 µg/mL | recovery at 120 min, 1 μM ([2]; Caco-2, pH 7.4, Direction A→B): 51% | recovery at 120 min, 1 μM ([2]; Caco-2, pH 7.4, Direction B→A): 66% | efflux ratio at 120 min, 1 µM [2]: 6.6 | Papp A→B at 120 min, 1 μM [2]: 6.26 ×10⁻⁶ cm/s | Papp B→A at 120 min, 1 μM [2]: 41 ×10⁻⁶ cm/s | permeability class (Low/High absorption potential) at 120 min, 1 µM [2]: > 1 ×10⁻⁶ cm/s | Significant Efflux (Caco-2 cell monolayers): Yes (efflux ratios being significant when greater than or equal to 3 when the Papp (B→A) was greater than or equal to 1×10^−6 cm/s)
